Where two headings read alike, the source gives them in different places.
Assays:
glioblastoma cells = test system: glioblastoma cells; parameters: method as in PMID 29683097; conditions: cited from earlier work
[1] = test system: diffuse large B-cell lymphoma cells; parameters: method as in PMID 26002965; conditions: cited from earlier work
ACHN cells = test system: ACHN cells; parameters: method as in PMID 33527838; conditions: cited from earlier work
various cell lines = test system: various cell lines; parameters: method as in PMID 26890117; conditions: cited from earlier work
ovarian cancer cells = test system: ovarian cancer cells; parameters: method as in PMID 31264855; conditions: cited from earlier work
HL-60 cells = experiment: CCK8 assay, HL-60 leukaemia cells; type: cell-based; conditions: Homo sapiens, CCK8, control drug, read-out: IC50, antiproliferative activity
Protocol: (§1) C42B, PC3, Caco-2, HepG2, MCF7, HL-60, 8505 C, OVCAR-3, and A549 were cultured to screen the broad-spectrum antiproliferative activity of compound 14. For above cell lines, three thousand cells per well were seeded in the 96-well plate and treated by compound 14 for 48 or 72 h at different concentrations (0, 5, 10, and 20 μM). In addition, HepG2, HEP3B, HUH6, and HUH7 were cultured to screen its antiproliferative activity against liver cancer cell lines. For these liver cancer cell lines, two thousand cells per well were seeded in the 96-well plate and treated by compound 14 for 48 h at different concentrations (0, 0.625, 1.25, 2.5, and 5 μM). Then, 10 μl of CCK8 was added into each well and cells were incubated in a humidified atmosphere of 5% CO2 at 37 °C for 4 h. The 96-well plate was measured with a microplate reader (Bio-Tek, San Diego, CA) at a wavelength of 450 nm to calculate IC50 values.

HepG2 cells [2] = experiment: CCK8 assay, HepG2 liver cancer cells; type: cell-based; conditions: Homo sapiens, CCK8, control drug, read-out: IC50, antiproliferative activity
Protocol: as §1

A549 cells = experiment: CCK8 assay, A549 lung cancer cells; type: cell-based; conditions: Homo sapiens, CCK8, control drug, read-out: IC50, antiproliferative activity
Protocol: as §1

OVCAR-3 cells = experiment: CCK8 assay, OVCAR-3 ovarian cancer cells; type: cell-based; conditions: Homo sapiens, CCK8, control drug, read-out: IC50, antiproliferative activity
Protocol: as §1

MCF7 cells = experiment: CCK8 assay, MCF7 breast cancer cells; type: cell-based; conditions: Homo sapiens, CCK8, control drug, read-out: IC50, antiproliferative activity
Protocol: as §1

8505 C cells = experiment: CCK8 assay, 8505 C thyroid cancer cells; type: cell-based; conditions: Homo sapiens, CCK8, control drug, read-out: IC50, antiproliferative activity
Protocol: as §1

C42B cells = experiment: CCK8 assay, C42B prostate cancer cells; type: cell-based; conditions: Homo sapiens, CCK8, control drug, read-out: IC50, antiproliferative activity
Protocol: as §1

PC3 cells = experiment: CCK8 assay, PC3 prostate cancer cells; type: cell-based; conditions: Homo sapiens, PC-3, CCK8, control drug, read-out: IC50, antiproliferative activity
Protocol: as §1

Caco-2 cells = experiment: CCK8 assay, Caco-2 colon cancer cells; type: cell-based; conditions: Homo sapiens, CCK8, control drug, read-out: IC50, antiproliferative activity
Protocol: as §1

MCF-7 = conditions: read-out: IC50, antiproliferative activity, cited from earlier work
HepG2 = test system: HepG2; parameters: method as in earlier work; conditions: HepG2 cell line; read-out: IC50, antiproliferative activity; cited from earlier work
PC3 = test system: PC3; parameters: method as in earlier work; conditions: PC3 cell line; read-out: IC50, antiproliferative activity; cited from earlier work
HCT-116 cells = test system: HCT-116 cells; parameters: method as in PMID 33773285; conditions: read-out: IC50, antiproliferative activity; cited from earlier work
LSD1 [3] = biological target: T1, LSD1 (Homo sapiens, UniProt O60341); experiment: LSD1 screening assay kit (enzymatic activity); type: biochemical; parameters: purchased Cayman Chemical (Ann Arbor, MI); conditions: fluorescence, read-out: IC50 against LSD1
Protocol: After the incubation for 30 min at 37 °C, a mixture of horseradish peroxidase solution (20 μl) and fluorometric substrate solution (10 μl) was added to each well. Then, the 96-well plate was incubated for 15 min at 37 °C. Finally, the fluorescence of each well in the 96-well plate was measured at an emission wavelength of 590 nm and an excitation wavelength of 530 nm by a fluorimeter (Agilent Technologies Inc., Palo Alto, CA). Seclidemstat, a famous LSD1 inhibitor, was used as the control drug in this assay.

HepG2 cells [4] = experiment: Xenograft study, HepG2 cells in nude mice; type: in vivo, BALB/c nude mice; conditions: 10 mg/kg by gavage every day for 21 days, nude mice bearing HepG2 cells
Protocol: Tumorigenesis in nude mice could stimulate the growth process of human tumours in the body, and could be used to develop and evaluate the effectiveness and safety of anti-cancer candidates. Therefore, xenograft studies in nude mice were performed to evaluate anticancer effects of compound 14. Animals were treated according to the protocols established by the ethics committee of The Fourth Clinical College of Xinxiang Medical University. The in vivo experiments were carried out in accordance with the approved guidelines and approved by the ethics committee of The Fourth Clinical College of Xinxiang Medical University. The number of ethics approvals is XMU-2024–01-03. All authors have adhered to the ARRIVE guidelines (https://arriveguidelines.org/). BALB/c nude mice were purchased from Beijing Huafukang Biotechnology Co., LTD (Beijing, China), and fifteen mice were used in this study (aged 6–7 weeks and weighing 20–30 g). Before the animal experiments, all nude mice were given a week to adjust to the clean, hygienic and specific-pathogen-free environment. All nude mice were taken care of instainless steel cages with a constant temperature of 60% humidity, 25 °C and a 12/12 light/dark cycle. Nude mice were fed with refreshing water and nourishing food everyday.
Then, nude mice were anaesthetised with 2% isoflurane and 0.3 l/min of oxygen by the small animal anaesthesia machine (Beijing Yi Zejia Technology Co., LTD, Beijing, China). 3 × 10^5 human liver cancer HepG2 cells were subcutaneously injected in the right armpit of mice. Until the volume of tumours reached 60–100 mm^3, all mice were randomly divided into three groups and each group had five nude mice. An amount of 60 mg/kg of compound 14, 10 mg/kg of seclidemstat and water as the control group were given by gavage every day for 21 days. Weight of mice and tumour volume were measured every 3 d. All nude mice in this xenograft studies were performed euthanizing procedures using a carbon dioxide euthanasia chamber (Shanghai Yuyan Instruments Co., Ltd, Shanghai, China). The flow rate of carbon dioxide was adjusted at 20% of the volume of the euthanasia chamber per minute. Once nude mice were unconscious, the flow rate was increased to 100% of the euthanasia chamber volume per minute. Death was confirmed by immobility, non-breathing and pupil enlargement. Tumours form BALB/c nude mice were isolated and weighed.

MOLP-8 cells = test system: MOLP-8 cells; parameters: method as in PMID 36476642; conditions: myeloma MOLP-8 cells; read-out: IC50, antiproliferative activity; cited from earlier work
KMS-12-PE cells = test system: KMS-12-PE cells; parameters: method as in PMID 36476642; conditions: myeloma KMS-12-PE cells; read-out: IC50, antiproliferative activity; cited from earlier work
H3K4me1/2 = conditions: cited from earlier work
THP-1 cells = test system: THP-1 cells; parameters: method as in PMID 35525212; conditions: read-out: IC50, antiproliferative activity; cited from earlier work
NB cells = test system: NB cells; parameters: method as in PMID 36223680; conditions: cited from earlier work
LSD1 [5] = biological target: T1, LSD1; parameters: purchased Cayman Chemical (Ann Arbor, MI); conditions: cited from earlier work

## CCCCCCCCCCCCSC(=O)CC1CC(=O)NC(=O)C1 [Compound 7]
Glioblastoma cells
  cell cycle and clonogenic capacity: induces cell cycle arrest and reduces clonogenic capacity

## Cc1nc2cccc(N)c2c(=O)n1C1CCC(=O)NC1=O (stereo not shown) [Compound 9]
[1]
  apoptosis and proliferation: induces apoptosis and inhibits proliferation

## O=C(c1ccc(OCCN2CCCCC2)cc1)c1c(-c2ccc(O)cc2)sc2cc(O)ccc12 [Raloxifene]
ACHN cells
  migration of ACHN cells: inhibits migration against ACHN cells

## COc1cc(NC(=O)CCSc2nc3ccc(Cl)cc3c(=O)n2-c2ccc(F)cc2)cc(OC)c1OC [Compound 13]
Various cell lines
  anticancer effects: exhibits extensive-spectrum anticancer effects

## COc1cccc(-c2cccc(NC(=O)CCc3cccc4c3B(O)OC4)c2)c1 [Compound 12]
Ovarian cancer cells
  colony formation and apoptosis: significantly inhibits colony formation and induces apoptosis

## O=c1[nH]cc(F)c(=O)[nH]1 [5-Fluorouracil]
HL-60 cells
  IC50: 7.25 µM
HepG2 cells [2]
  IC50: 9.87 µM
A549 cells
  IC50: > 20 µM
OVCAR-3 cells
  IC50: > 20 µM
MCF7 cells
  IC50: > 20 µM
8505 C cells
  IC50: 12.4 µM
C42B cells
  IC50: 16.7 µM
PC3 cells
  IC50: 12.3 µM
Caco-2 cells
  IC50: > 20 µM

## O=C1CCC(NC(=O)CSc2nnc3c(=O)[nH]c4ccccc4n23)C(=O)N1 (stereo not shown) [Compound 8]
MCF-7; MCF-7 cell line
  IC50: 10.1 µM
HepG2
  IC50: 9.81 µM
PC3
  IC50: 15.5 µM

## Cc1ccc(S(=O)(=O)CCC(=O)Nc2ccc(S(N)(=O)=O)cc2)cc1 [Compound 11]
HCT-116 cells
  IC50: 0.57 µM
MCF-7; MCF-7 cells
  IC50: 0.67 µM

## C/C(=N\NC(=O)c1cccc(S(=O)(=O)N2CCN(C)CC2)c1)c1cc(Cl)ccc1O [Seclidemstat]
LSD1 [3]
  IC50: 0.02 ± 0.01 µM
HepG2 cells [4]
  growth of subcutaneous tumours: inhibited the growth of subcutaneous tumours

## O=C1CCC(CS(=O)(=O)Cc2ccccc2)C(=O)N1 (stereo not shown) [Compound 10]
MOLP-8 cells
  IC50: 5.52 µM
KMS-12-PE cells
  IC50: 5.17 µM

## COc1cc2nc(NCCCN(C)C)nc(NC3CCN(Cc4ccc5ccccc5c4)CC3)c2cc1OC [Compound 2]
H3K4me1/2
  expression levels of H3K4me2: increases the expression levels of H3K4me2
THP-1 cells
  IC50: 0.3 µM

## O=S(=O)(Nc1ccc(Br)cc1-c1nn[nH]n1)c1ccc(-c2ccc(Cl)cc2)cc1 [Compound 3]
NB cells
  synergistic effect with bortezomib: displays the synergistic effect against NB cells with bortezomib

## COc1ccc(CN(C(=O)CSC(=S)N2CCN(c3ccc(N)cc3)CC2)c2cc(OC)c(OC)c(OC)c2)cc1O [Compound 6]
LSD1 [5]
  LSD1 inhibition: inhibits LSD1
H3K4me1/2
  accumulation of H3K4me1/2: induces the accumulation of H3K4me1/2

From article PMC11843658 (Journal of Enzyme Inhibition and Medicinal Chemistry, 2025)
